Molecular target: T1, Acetylcholinesterase (AChE) (Electrophorus electricus, UniProt O42275)
T1 construct: purchased Sigma Aldrich type VI-S
Assay: In vitro anti-acetylcholinesterase assay (Ellman's method)
Assay type: biochemical
Conditions: read-out: AChE Inhibition (IC50)
Description: In vitro enzyme assay reagents were purchased as previously described. Acetylcholinesterase (AChE) from Electrophorus electricus type VI-S lyophilized powder (137 units/mg) was acquired from Sigma Aldrich (St. Louis, MO, USA). Substrate acetylthiocholine iodide (ATCl) and sodium phosphate monobasic and dibasic anhydrous used for buffer preparation were obtained from Wako Pure Chemical (Osaka, Japan). Coloring reagent 5,5′-dithio-bis-(2-nitrobenzoic acid) (DTNB) was acquired from Nacalai Tesque (Kyoto, Japan). […] All other reagents acquired from commercial sources were of analytical grade.
The plant fractions and isolated compounds were evaluated for their anti-AChE potential in triplicate based on the Ellman’s method described previously.

T1 sequence (O42275 24-633): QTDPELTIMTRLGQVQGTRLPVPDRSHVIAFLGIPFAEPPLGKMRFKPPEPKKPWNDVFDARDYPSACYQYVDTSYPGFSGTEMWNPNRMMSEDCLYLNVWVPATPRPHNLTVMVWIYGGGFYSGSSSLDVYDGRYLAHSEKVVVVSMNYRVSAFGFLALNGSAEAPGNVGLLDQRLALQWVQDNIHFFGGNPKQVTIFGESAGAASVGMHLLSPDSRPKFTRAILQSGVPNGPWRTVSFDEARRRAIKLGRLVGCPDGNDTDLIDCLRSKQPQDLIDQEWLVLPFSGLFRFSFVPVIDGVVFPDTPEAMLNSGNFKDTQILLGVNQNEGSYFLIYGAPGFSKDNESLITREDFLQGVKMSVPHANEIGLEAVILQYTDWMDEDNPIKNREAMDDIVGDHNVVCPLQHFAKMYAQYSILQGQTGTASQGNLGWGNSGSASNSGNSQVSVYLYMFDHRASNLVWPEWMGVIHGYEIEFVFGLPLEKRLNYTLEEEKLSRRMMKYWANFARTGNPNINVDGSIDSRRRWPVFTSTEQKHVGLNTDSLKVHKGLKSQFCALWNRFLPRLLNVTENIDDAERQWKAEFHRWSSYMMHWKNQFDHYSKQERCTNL

CC(C)=CCC/C(C)=C/Cc1c(C2CC(=O)c3c(O)cc(O)c(CC=C(C)C)c3O2)ccc(O)c1O (centres unmarked) [Compound 1, solophenol A]
IC50: 1000 nM

CC(C)=CCC/C(C)=C/Cc1c([C@@H]2CC(=O)c3c(O)cc(O)cc3O2)ccc(O)c1O [Compound 2, nymphaeol B]
IC50: 33000 nM

CC(C)=CCCC(C)=CCc1c(O)cc2c(c1O)C(=O)CC(c1cc(O)cc(O)c1)O2 (centres unmarked) [Compound 3, schizolaenone C]
IC50: 6800 nM

CC/C=C\C/C=C\C/C=C\CCCCCCCc1cccc(O)c1C(=O)O [Compound 4, 6-heptadeca-8Z,11Z,14Z-trienyl salicylic acid]
IC50: 2400 nM

CCCC/C=C\C/C=C\CCCCCCCCc1cccc(O)c1C(=O)O [Compound 5, 6-heptadeca-9Z,12Z-dienyl salicylic acid]
IC50: 540 nM
